# Assay results taken from patent US7560106B2, “Rationally designed heparinases derived from heparinase I and II and methods of sequencing therewith” (Massachusetts Institute of Technology, priority 1998, dated 2009).
# Read-outs that look alike come from different tables or passages of the source.
# Experiments:
# [1] = target: T1, heparinase II (Pedobacter heparinus, UniProt C6XZB6); test: DEPC inactivation of heparinase II and reactivation with hydroxylamine; assay type: biochemical, Flavobacterium heparinum; details: for initial activity recovered by DEPC-modified enzyme: 500 mM hydroxylamine; for kinact/KI: read-out: second-order rate constant of inactivation (converted)
# T1 sequence (C6XZB6 26-772): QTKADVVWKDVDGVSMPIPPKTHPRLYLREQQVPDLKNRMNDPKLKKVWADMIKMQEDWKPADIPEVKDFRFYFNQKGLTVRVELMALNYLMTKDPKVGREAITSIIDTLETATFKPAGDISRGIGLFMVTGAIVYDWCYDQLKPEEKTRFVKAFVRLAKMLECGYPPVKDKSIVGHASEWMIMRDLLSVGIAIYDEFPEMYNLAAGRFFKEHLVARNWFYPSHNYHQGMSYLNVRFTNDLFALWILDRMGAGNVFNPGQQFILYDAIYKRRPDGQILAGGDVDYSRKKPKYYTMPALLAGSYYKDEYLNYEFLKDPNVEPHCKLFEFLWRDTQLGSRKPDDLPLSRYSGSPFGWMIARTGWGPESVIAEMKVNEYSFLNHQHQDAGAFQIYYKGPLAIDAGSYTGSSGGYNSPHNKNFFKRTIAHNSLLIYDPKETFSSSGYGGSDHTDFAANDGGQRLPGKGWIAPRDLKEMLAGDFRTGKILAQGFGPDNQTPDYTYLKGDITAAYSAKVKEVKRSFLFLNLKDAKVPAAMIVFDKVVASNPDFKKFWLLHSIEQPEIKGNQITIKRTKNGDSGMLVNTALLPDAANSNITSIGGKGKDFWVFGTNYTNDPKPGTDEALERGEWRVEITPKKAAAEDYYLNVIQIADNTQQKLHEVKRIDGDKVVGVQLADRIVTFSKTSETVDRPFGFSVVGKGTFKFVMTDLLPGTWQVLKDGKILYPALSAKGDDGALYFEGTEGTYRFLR
# [2] = target: T1, heparinase II; test: pCMB modification and inactivation of heparinase II; assay type: biochemical, Flavobacterium heparinum
# Excerpt: (§1) Heparinase II Activity Assay. Native heparinase II from Flavobacterium heparinum, was purified as described previously (Godavarti, R., and Sasisekharan, R (1996c) Biochem. Biophys. Res. Comm. 229, 770-777). The UV 232 nm assay to quantify native heparinase II enzymatic activity was similar to that reported for heparinase I (Bernstein, H., Yang, V. C., Cooney, C. L., Langer, R. (1988) Meth. Enzym. 137, 515-29). Briefly, the course of the reaction is monitored by measuring the increase in absorbance at 232 nm as a function of time under saturating substrate concentrations. With heparin as the substrate, the reaction was carried out at a concentration of 4 mg/ml in 50 mM sodium phosphate buffer, pH 7.3. With 2 mg/ml heparan sulfate, the reaction was measured in 50 mM sodium phosphate buffer, pH 6.9 (Sasisekharan, R., Moses, M. A., Nugent, M. A., Cooney, C. L., Langer, R. (1994) Proc. Natl. Acad. Sci., USA 91, 1524-1528). The temperature for all enzymatic activity measurements was kept constant at 35° C.
# pCMB Modification Studies. […]. A control reaction mixture containing vehicle alone was run in tandem. At fixed time intervals, aliquots were withdrawn for the UV 232 nm enzyme activity assay.
# (B) Reactivation of pCMB—modified heparinase II with DTT. Heparinase II (50 μg/ml) was incubated with 5 μM pCMB for 4 minutes and an aliquot was withdrawn to determine the fractional activity retained. DTT (10 mM) was then immediately added to the reaction mixture and to the control, which contained no pCMB. The mixtures were incubated at 4° C. Heparinase II activity was measured every half hour.
# (C) Effect of salt on the inactivation of heparinase II by pCMB. Heparinase II was incubated with 5 μM pCMB in 50 mM sodium phosphate buffer, pH 7.0, with different salt concentrations (30, 60, 110, 180, 300, and 500 mM NaCl). A control mixture, which contained no additional salt, was also incubated with pCMB.
# (D) Substrate protection of heparinase II against pCMB modification. Heparinase II (50 μg/ml) was preincubated with either 4 mg/ml heparin or 2 mg/ml heparan sulfate for 30 minutes prior to the addition of 5 μM pCMB and then the time course of inactivation was determined with the heparinase II activity assay.
# (E) Quantification of pCMB—modified residues of heparinase II. Quantification of pCMB-modified residues of heparinase II was determined by difference spectra. […] The change in absorbance at 250 nm was monitored every 30 seconds for 10 minutes. The number of modified residues was determined using ∈=7,600 M^−1 cm^−1 (Boyer, P. D. (1952) J. Am. Chem. Soc. 76, 4331-4337). Heparinase II activity assays were completed under identical conditions with heparin as the substrate.
# […]. Less than 2% of total heparinase II enzymatic activity remained after this time interval. […]. Modified heparinase II was separated and concentrated. pCMB was removed via addition of DTT. [^3H]NEM was added to the reaction mixture; unreacted tritium was separated by RPHPLC and heparinase II was digested with Lys-C.
# [3] = Heparinase I activity as a function of calcium concentration (K0.5, calcium dependence); assay type: biochemical
# Experimental: (§2) Heparinase I Activity Assays: The UV 232 nm assay was used as described in Example 1. When measuring the enzyme activity as a function of heparin concentration, heparin concentrations varied from 0 to 4 mg/ml at a fixed calcium concentration of 5 mM (100 mM MOPS buffer/5 mM calcium acetate, pH 7.0). The data was then fit to an non-linear equation to determine Kcat and Km of heparinases I. Heparinase mutant activity was also investigated as a function of calcium concentration ranging from 0 to 10 mM. […] Activity is expressed as IU-μmol product formed/min using ∈=−3800-M^−1CM^−1.
# [4] = Fluorescence competition for calcium with probe rhod-5N; details: apparent dissociation constant of rhod-5N for calcium with 3 μM enzyme; lower Kd′ means less binding of calcium by heparinase I
# Experimental: Fluorescence Competition. To determine the effect of mutations in CB-1 and CB-2 on the ability of heparinase I to bind calcium, mutants with a dramatic drop in activity were tested for their ability to bind calcium. To accomplish this, we examined the ability of heparinase I and mutants to compete for free calcium with the calcium-chelating fluorescence probe rhod-5N. The fluorescence probe rhod-5N was dissolved and diluted in buffer A (10 mM MOPS and 100 mM KCl, pH 6.5). Buffer A and the water used in the study were run through a Chelex Resin column to remove trace amounts of calcium. In the absence of calcium, rhod-5N is not fluorescent, however upon binding calcium rhod-5N is fluorescent with an emission λmax of 576 nm. Before titration, rhod-5N and heparinase I were added to a quartz cuvette such that the final concentration of rhod-5N in the cuvette was 0.3 μM and heparinase I is 3 μM. To this solution was added aliquots of a calcium solution (20 mM) which had been previously equilibrated with 0.3 μM rhod-5N and 3 μM heparinase I. The stock was added such that the calcium concentration in the cuvette was 50, 100, 200, 500, 1000, 5000 μM. After allowing the solution to come to equilibrium, the sample was scanned from 560 nm to 600 nm with the excitation wavelength fixed at […]. The plot of I/Imax versus [Ca^++] was fitted to a non-linear equation to determine the apparent Kd (Kd′) value. Thus, Kd′ values represent the apparent dissociation constants for the fluorescence probe rhod-5N. Control samples without heparinase I were included in the study.
# [5] = Heparin-POROS affinity chromatography; assay type: binding; details: salt concentration at which enzyme elutes from heparin-POROS column; 10 mM Tris, 1 mM EDTA pH 7.0
# Experimental: Heparin-POROS chromatography: About 30-40 μg of -L r-heparinase I and the various mutant enzymes were injected into a heparin POROS (4.6 mm×100) column (PerSeptive BioSystems, Framingham, Mass.) connected to BioCAD system (PerSeptive BioSystems). Proteins were eluted using a linear gradient of […] NaCl in 10 min (10 mM Tris, 1 mM EDTA pH 7.0) and monitored at 210 nm. EDTA was added to chelate any calcium ions that may be present in the buffers.
# [6] = Heparinase I UV 232 nm activity assay as a function of heparin concentration (Kcat, Km); assay type: biochemical, porcine; details: for Kcat / Km: heparin 0 to 4 mg/ml, 5 mM calcium acetate, pH 7.0; for Kcat: 100 mM MOPS
# Excerpt: as §1
# Heparinase I Activity Assay. The UV 232 nm assay to quantify heparinase I enzymatic activity was similar to that described in Example 1. With heparin as the substrate, the reaction was carried out at a concentration of 4 mg/ml in 100 mM MOPS, 5 mM calcium acetate, pH 7.0. The temperature for all enzymatic activity measurements was kept constant at 30° C. For the inactivation kinetic profiles, activity was measured as outlined above at precise time points.
# as §2
# [7] = calcium concentration at which half of the maximum enzyme activity was observed, calcium 0 to 10 mM, Table 4 first K0.5 column
molecule,measurement,setting,value
NO [Hydroxylamine],initial activity recovered by DEPC-modified enzyme,"[1]; 8 hours, pH 7.0",about 90%
same,initial activity recovered by DEPC-modified enzyme,"[1]; approximately 1.5 hours, pH 7.0, after inactivation to 50%",about 80%
same,activity restored after DEPC modification,[1]; pH 8,over 70%
"O=C(O)c1cc[c]([Hg][Cl])cc1 [pCMB, p(chloromercuri)benzoate]",time to complete inactivation of heparinase II,[2]; 10 μM,≤ 15 min
same,loss of activity,[2]; 20 μM pCMB,98%
same,number of cysteines modified,[2]; 20 μM pCMB,1.06 cysteines
same,first-order rate constant of inactivation,[2]; 500 mM salt,0.06 min⁻¹
same,drop of first order rate constant of inactivation,"[2]; between 0 and 100 mM NaCl, 5 μM pCMB",2 fold
same,decrease of first order rate constant of inactivation,"[2]; between 0 and 300 mM NaCl, 5 μM pCMB",more than 4 fold
same,"k, first-order rate constant of inactivation",[2]; pH 5.0,0.16 min⁻¹
same,"k, first-order rate constant of inactivation",[2]; pH 6.0,0.14 min⁻¹
same,"k, first-order rate constant of inactivation",[2]; pH 7.0,0.21 min⁻¹
same,second-order rate constant for the inactivation,"[2]; pH 7.0, 4° C.",667 M⁻¹ s⁻¹
same,"k, first-order rate constant of inactivation",[2]; pH 8.0,0.24 min⁻¹
same,total heparinase II enzymatic activity remaining,"[2]; stoichiometric amount of pCMB, 15 minutes",Less than 2%
same,pCMB inactivation (Table 1 value),"[2]; substrate heparan sulfate, protection reagent heparan sulfate",0.09
same,pCMB inactivation (Table 1 value),"[2]; substrate heparan sulfate, protection reagent heparin",0.16
same,pCMB inactivation (Table 1 value),"[2]; substrate heparan sulfate, protection reagent none",0.21
same,pCMB inactivation (Table 1 value),"[2]; substrate heparin, protection reagent heparan sulfate",0.10
same,pCMB inactivation (Table 1 value),"[2]; substrate heparin, protection reagent heparin",0.16
same,pCMB inactivation (Table 1 value),"[2]; substrate heparin, protection reagent none, 5 μM pCMB",0.22
"CCOC(=O)OC(=O)OCC [DEPC, diethylpyrocarbonate]",loss of heparinase II enzymatic activity,"[1]; 2 mM DEPC, 10 minutes, towards heparin and heparan sulfate",90%
same,number of histidines modified,"[1]; 2 mM DEPC, ten minutes, pH 7.0",roughly three
same,kinact/KI,[1]; heparan sulfate as the substrate,4 M⁻¹ s⁻¹
same,kinact/KI,[1]; heparin as the substrate,2.67 M⁻¹ s⁻¹
"D212A/G213A/T216A: heparinase I CB-1 triple mutant (protein, UniProt Q05819 22-384, looked up, variant D212A G213A T216A) Heparin lyase I: QQKKSGNIPYRVNVQADSAKQKAIIDNKWVAVGINKPYALQYDDKLRFNGKPSYRFELKAEDNSLEGYAAGETKGRTELSYSYATTNDFKKFPPSVYQNAQKLKTVYHYGKGICEQGSSRSYTFSVYIPSSFPDNATTIFAQWHGAPSRTLVATPEGEIKTLSIEEFLALYDRMIFKKNIAHDKVEKKDKAAKIAYVAGKPNGWKVEQGGYPTLAFGFSKGYFYIKANSDRQWLTDKADRNNANPENSEVMKPYSSEYKTSTIAYKMPFAQFPKDCWITFDVAIDWTKYGKEANTILKPGKLDVMMTYTKNKKPQKAHIVNQQEILIGRNDDDGYYFKFGIYRVGNSTVPVTYNLSGYSETAR",K0.5,[3]; Table 4 second K0.5 column,730 µM
same,K0.5,[3]; [7],730 µM
same,Kd,[4],116 µM
same,NaCl,[5],495 mM
same,decrease in Kcat compared to wild-type r-heparinase I,[6],~5 fold
same,Kcat,[6],20 s⁻¹
same,Km,[6],3.16 µM
"E381A: heparinase I CB-2 mutant, glutamate 381 changed to alanine (protein, UniProt Q05819 22-384, looked up, variant E381A) Heparin lyase I: QQKKSGNIPYRVNVQADSAKQKAIIDNKWVAVGINKPYALQYDDKLRFNGKPSYRFELKAEDNSLEGYAAGETKGRTELSYSYATTNDFKKFPPSVYQNAQKLKTVYHYGKGICEQGSSRSYTFSVYIPSSFPDNATTIFAQWHGAPSRTLVATPEGEIKTLSIEEFLALYDRMIFKKNIAHDKVEKKDKDGKITYVAGKPNGWKVEQGGYPTLAFGFSKGYFYIKANSDRQWLTDKADRNNANPENSEVMKPYSSEYKTSTIAYKMPFAQFPKDCWITFDVAIDWTKYGKEANTILKPGKLDVMMTYTKNKKPQKAHIVNQQEILIGRNDDDGYYFKFGIYRVGNSTVPVTYNLSGYSATAR",K0.5,[3]; Table 4 second K0.5 column,180 µM
same,K0.5,[3]; [7],180 µM
same,Kd,[4],175 µM
same,NaCl,[5],505 mM
same,decrease in Kcat compared to wild-type r-heparinase I,[6],about 10 fold
same,Kcat,[6],10 s⁻¹
same,Km,[6],0.52 µM
